Laboratory results: ChEMBL document CHEMBL1146939, “Design, synthesis, and biological evaluations of novel oxindoles as HIV-1 non-nucleoside reverse transcriptase inhibitors. Part 2” (Bioorg Med Chem Lett, 2006)
pEC50: −log10 of the molar value.

Tests used:
[1] = system: Human immunodeficiency virus 1; assay: Antiviral activity against HIV1 in HEK293T cells; format: functional, organism-based; conditions: Human immunodeficiency virus 1, HEK-293T
HEK293 = assay: Cytotoxicity against HEK293T cells; format: functional; conditions: Homo sapiens
[2] = system: Human immunodeficiency virus 1; assay: Antiviral activity against HIV1 K103N mutant; format: functional, organism-based
[3] = system: Human immunodeficiency virus 1; assay: Antiviral activity against HIV1 Y188L mutant; format: functional, organism-based
[4] = system: Human immunodeficiency virus 1; assay: Antiviral activity against HIV1 L100I mutant; format: functional, organism-based
[5] = system: Human immunodeficiency virus 1; assay: Antiviral activity against HIV1 Y181C mutant; format: functional, organism-based
[6] = system: Human immunodeficiency virus 1; assay: Antiviral activity against HIV1 I135T mutant; format: functional, organism-based
[7] = system: Human immunodeficiency virus 1; assay: Antiviral activity against HIV1 V106A mutant; format: functional, organism-based
[8] = system: Human immunodeficiency virus 1; assay: Antiviral activity against HIV1 V179E mutant; format: functional, organism-based
[9] = system: Human immunodeficiency virus 1; assay: Antiviral activity against HIV1 I135V mutant; format: functional, organism-based
[10] = system: Human immunodeficiency virus 1; assay: Antiviral activity against HIV1 E138K mutant; format: functional, organism-based
[11] = system: Human immunodeficiency virus 1; assay: Antiviral activity against HIV1 F227C mutant; format: functional, organism-based
[12] = system: Human immunodeficiency virus 1; assay: Antiviral activity against HIV1 F227L mutant; format: functional, organism-based
Rattus norvegicus [13] = assay: Cmax in […] rat at 50 mg/kg, po normalized to 1 mg/kg; format: ADME, organism-based; parameters: dose 50 mg/kg, route oral; conditions: in vivo
Rattus norvegicus [14] = assay: AUC in […] rat at 50 mg/kg, po normalized to 1 mg/kg; format: ADME, organism-based, Plasma; conditions: in vivo
[15] = Oral bioavailability in […] rat at 50 mg/kg, po; format: ADME, organism-based; conditions: in vivo

`O=C1Nc2ccc(Cl)cc2[C@@]12C[C@@H]2c1ccncc1` gave a pEC50 [1] of less than 5.00 and a CC50 (HEK293) greater than 10000 nM.
In the case of `O=C1Nc2ccc(Cl)cc2[C@@]12C[C@@H]2c1cccn1S(=O)(=O)c1ccccc1`, the pEC50 [1] was 5.17 and the CC50 (HEK293) was greater than 10000 nM.
Compound `O=C1Nc2ccc(Cl)cc2[C@@]12C[C@@H]2c1ccccc1` has a pEC50 [1] of 6.61 and a CC50 (HEK293) greater than 10000 nM.
Work on `C=Cc1cccc([C@H]2C[C@]23C(=O)Nc2ccc(Cl)cc23)n1` yielded a pEC50 [2] of 4.95, a pEC50 [3] of 4.65 and a pEC50 [1] of 8.30. The CC50 (HEK293) was greater than 10000 nM, the pEC50 [4] was 6.75 and the pEC50 [5] was 7.07. For the same compound, the pEC50 [6] was 7.80, the pEC50 [7] was 6.83 and the pEC50 [8] was 7.06. It also gave a pEC50 [9] greater than 8.52, a pEC50 [10] of 7.70 and a pEC50 [11] of 6.24. The pEC50 [12] was 7.06.
`CSc1nc([C@H]2C[C@]23C(=O)Nc2ccc(Cl)cc23)ccc1C#N` gave a pEC50 [1] of 6.36 and a CC50 (HEK293) greater than 10000 nM.
Work on `O=C1Nc2ccc(Cl)cc2[C@@]12C[C@@H]2c1ccc2c(O)cccc2n1` yielded a pEC50 [1] of 6.23 and a CC50 (HEK293) greater than 10000 nM.
Work on `O=C1Nc2ccc(Cl)cc2[C@@]12C[C@@H]2c1ccc2ccccc2n1` yielded a pEC50 [1] of 8.00 and a CC50 (HEK293) greater than 10000 nM.
For `C=Cc1cccc([C@H]2C(C)(C)[C@]23C(=O)Nc2ccc(Cl)cc23)n1`, the pEC50 [2] was 6.16, the pEC50 [3] was 5.97 and the pEC50 [1] was 8.10. For the same compound, the CC50 (HEK293) was greater than 10000 nM, the pEC50 [4] was 6.64 and the pEC50 [5] was 6.92. For the same compound, the pEC50 [6] was 7.43, the pEC50 [7] was 7.39 and the pEC50 [8] was 8.00. The pEC50 [9] was 7.54, the pEC50 [10] was 7.59 and the pEC50 [11] was 7.06. The pEC50 [12] was 7.85.
Work on `Cn1nnc([C@H]2C[C@]23C(=O)Nc2ccc(Cl)cc23)n1` yielded a pEC50 [1] of 7.26 and a CC50 (HEK293) greater than 10000 nM.
With `Cc1ccc([C@H]2C[C@]23C(=O)Nc2ccc(Cl)cc23)o1` the pEC50 [1] was 7.14 and the CC50 (HEK293) was greater than 10000 nM.
`O=C1Nc2ccc(Cl)cc2[C@@]12C[C@@H]2c1ccccn1` gave a pEC50 [2] of less than 5.00, a pEC50 [3] of less than 5.00 and a Cmax (Rattus norvegicus [13]) of 68.4 nM. It also gave an AUC (Rattus norvegicus [14]) of 5.43 µg·min/mL, a bioavailability [15] of 46% and a pEC50 [1] of 8.10. The CC50 (HEK293) was greater than 10000 nM, the pEC50 [4] was 6.76 and the pEC50 [5] was 5.49. For the same compound, the pEC50 [6] was 6.90, the pEC50 [7] was 6.59 and the pEC50 [8] was 6.05. For the same compound, the pEC50 [9] was 7.59, the pEC50 [10] was 7.35 and the pEC50 [11] was 6.28. It also gave a pEC50 [12] of 7.89.
Work on `O=C1Nc2ccc(Cl)cc2[C@@]12C[C@@H]2c1ccco1` yielded a pEC50 [1] of 6.70 and a CC50 (HEK293) greater than 10000 nM.
`O=C1Nc2ccc(Cl)cc2[C@@]12C[C@@H]2c1ccsc1` gave a pEC50 [2] of 7.00, a pEC50 [3] of 5.90 and a pEC50 [1] of 8.22. For the same compound, the CC50 (HEK293) was 1670 nM, the pEC50 [4] was 8.10 and the pEC50 [5] was 7.51. The pEC50 [6] was 7.32, the pEC50 [7] was 6.29 and the pEC50 [8] was 6.49. The pEC50 [9] was 7.77, the pEC50 [10] was 7.52 and the pEC50 [11] was 6.85. For the same compound, the pEC50 [12] was 8.70.
Compound `CCc1ccc([C@H]2C[C@]23C(=O)Nc2ccc(Cl)cc23)o1` has a pEC50 [1] of 6.67 and a CC50 (HEK293) greater than 10000 nM.
`O=C1Nc2ccc(Cl)cc2[C@@]12C[C@@H]2c1cccc(-c2ccccc2)n1` gave a pEC50 [1] of 6.86 and a CC50 (HEK293) greater than 10000 nM.
`O=C1Nc2ccc(Cl)cc2[C@@]12C[C@@H]2c1cc(Br)cs1` gave a pEC50 [1] of 5.90 and a CC50 (HEK293) greater than 10000 nM.
For `O=C1Nc2ccc(Cl)cc2[C@@]12C[C@@H]2c1cccc(Br)n1`, the pEC50 [2] was 5.71, the pEC50 [3] was 5.19 and the pEC50 [1] was 7.64. The CC50 (HEK293) was greater than 10000 nM, the pEC50 [4] was 6.56 and the pEC50 [5] was 6.87. The pEC50 [6] was 7.34, the pEC50 [7] was 6.78 and the pEC50 [8] was 7.32. It also gave a pEC50 [9] of 7.85, a pEC50 [10] of 7.49 and a pEC50 [11] of 6.84. The pEC50 [12] was 7.32.
For `O=C1Nc2ccc(Cl)cc2[C@@]12C[C@@H]2c1cc([N+](=O)[O-])cs1`, the pEC50 [1] was less than 5.00 and the CC50 (HEK293) was greater than 10000 nM.
With `CC1(C)[C@H](c2ccc3ccccc3n2)[C@@]12C(=O)Nc1ccc(Cl)cc12` the pEC50 [2] was 5.63, the pEC50 [3] was less than 5.00 and the pEC50 [1] was 8.00. For the same compound, the CC50 (HEK293) was greater than 10000 nM, the pEC50 [4] was 7.24 and the pEC50 [5] was 6.14. For the same compound, the pEC50 [6] was 7.26, the pEC50 [7] was 6.99 and the pEC50 [8] was 6.32. It also gave a pEC50 [9] of 7.33, a pEC50 [10] of 7.15 and a pEC50 [11] of 5.68. It also gave a pEC50 [12] of 6.42.
For `CCOC(=O)[C@H]1C(C)(C)[C@]12C(=O)Nc1ccc(Br)cc12`, the Cmax (Rattus norvegicus [13]) was 17.9 nM, the AUC (Rattus norvegicus [14]) was 0.9 µg·min/mL and the bioavailability [15] was 27%. It also gave a CC50 (HEK293) greater than 10000 nM.
Compound `O=C1Nc2ccc(Cl)cc2[C@@]12C[C@@H]2c1cccc[n+]1[O-]` has a pEC50 [1] of less than 5.00 and a CC50 (HEK293) greater than 10000 nM.
With `CC#Cc1cccc([C@H]2C[C@]23C(=O)Nc2ccc(Cl)cc23)n1` the pEC50 [1] was 6.19 and the CC50 (HEK293) was greater than 10000 nM.
Work on `O=C1Nc2ccc(Cl)cc2[C@@]12C[C@@H]2c1ccccc1Br` yielded a pEC50 [1] of less than 5.00 and a CC50 (HEK293) greater than 10000 nM.
In the case of `O=C1Nc2ccc(Cl)cc2[C@@]12C[C@@H]2c1cccc(-c2ccco2)n1`, the pEC50 [2] was 4.85, the pEC50 [3] was 4.64 and the pEC50 [1] was 7.74. It also gave a CC50 (HEK293) of 7950 nM, a pEC50 [4] of 5.68 and a pEC50 [5] of 6.58. The pEC50 [6] was 7.12, the pEC50 [7] was 5.60 and the pEC50 [8] was 7.00. The pEC50 [9] was 7.26, the pEC50 [10] was 7.55 and the pEC50 [11] was 6.18. The pEC50 [12] was 5.63.
`O=C1Nc2ccc(Cl)cc2[C@@]12C[C@@H]2c1ccc(-c2cccc(C(F)(F)F)c2)o1` showed a pEC50 [1] of 5.26 and a CC50 (HEK293) greater than 10000 nM.
`O=C1Nc2ccc(Cl)cc2[C@@]12C[C@@H]2c1nn[nH]n1` gave a pEC50 [1] of less than 5.00 and a CC50 (HEK293) of 7610 nM.
